This assay deals with compound-treated mice. Description: Neuropharmacological assay (SmartCube): behavioral activity signature and minimal effective dose. The class given is in vivo. As to conditions: for minimal effective dose: Mus musculus, ip; for AD: ADHD (probability of activity signature) / AG: analgesic (probability of activity signature) / AX: anxiolytic (probability of activity signature) / CE: cognitive enhancer (probability of activity signature) / DP: anti-depressant (probability of activity signature) / MS: mood stabilizer (probability of activity signature) / PS: anti-psychotic (probability of activity signature) / SD: sedative hypnotic (probability of activity signature) / UN: uncharacterized CNS activity (probability of activity signature): i.p. 15 min before test, most efficacious dose(s). In outline: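 Video-recorded behavior is compared algorithmically against a reference-compound database, yielding class probabilities (best dose reported). Compounds given i.p. in NMP/PEG/propylene glycol 15 min pre-test at 3 doses; potency as MED, the dose (mpk, range usually 0.3–30) reaching ≥50% total activity.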

Setting [1] is: MED = dose having 50% or more total activity, read-out: Potency: minimal effective dose (MED).
[2] abbreviates: MED = dose having 50% or more total activity, read-out: Potency: minimal effective dose (MED), binned.

Like-named read-outs stand apart in the source and are kept apart here.

The minimal effective dose is the smallest amount tested that counted as effective.

With `CN[C@H]1COCc2cccc(Cl)c21` [Example 146], the “AD: ADHD (probability of activity signature)” value (“AD: ADHD” for short) was “+ (LOQ ≤ + <5%)”, the “AG: analgesic (probability of activity signature)” value (“AG: analgesic” below) is “++ (5% ≤ ++ <25%)”, the “AX: anxiolytic (probability of activity signature)” value (“AX: anxiolytic” below) is “+++ (25% ≤ +++ <50%)” and the “CE: cognitive enhancer (probability of activity signature)” value (“CE: cognitive enhancer” for short) is listed as “++ (5% ≤ ++ <25%)”. In addition, the “DP: anti-depressant (probability of activity signature)” value (from here on “DP: anti-depressant”) is reported as “+ (LOQ ≤ + <5%)”, the “MS: mood stabilizer (probability of activity signature)” value (shortened to “MS: mood stabilizer”) is given as “+ (LOQ ≤ + <5%)”, the “PS: anti-psychotic (probability of activity signature)” value (“PS: anti-psychotic” below) is recorded as “+ (LOQ ≤ + <5%)” and the “SD: sedative hypnotic (probability of activity signature)” value (“SD: sedative hypnotic” for short) is listed as “+ (LOQ ≤ + <5%)”. In addition, the “UN: uncharacterized CNS activity (probability of activity signature)” value (“UN: uncharacterized CNS activity” for short) is given as “++ (5% ≤ ++ <25%)”. Moreover, the minimal effective dose under setting [1] was in the range of 3 to 10 mg/kg.

As for “cis-3-Isopropylisochroman-4-amine hydrochloride [Example 273]”, the “AD: ADHD” value was “+ (LOQ ≤ + <5%)”, the “AG: analgesic” value is “++ (5% ≤ ++ <25%)”, the “AX: anxiolytic” value is “+ (LOQ ≤ + <5%)” and the “CE: cognitive enhancer” value is “+ (LOQ ≤ + <5%)”. Also, the “DP: anti-depressant” value is “++ (5% ≤ ++ <25%)”, the “MS: mood stabilizer” value was “++ (5% ≤ ++ <25%)”, the “PS: anti-psychotic” value is on record as “+ (LOQ ≤ + <5%)” and the “SD: sedative hypnotic” value is reported as “+++ (25% ≤ +++ <50%)”. The “UN: uncharacterized CNS activity” value is listed as “++ (5% ≤ ++ <25%)”. Moreover, the “Potency: minimal effective dose (MED), binned” value (MED = dose having 50% or more total activity) is “A (≤3 mpk)”.

As to `CC[C@H]1OCc2ccc(C)cc2[C@H]1N` (single isomer, unassigned) [Example 180], the “AD: ADHD” value is reported as “+ (LOQ ≤ + <5%)”, the “AG: analgesic” value is listed as “++ (5% ≤ ++ <25%)”, the “AX: anxiolytic” value is “++ (5% ≤ ++ <25%)” and the “CE: cognitive enhancer” value is listed as “++ (5% ≤ ++ <25%)”. Moreover, the “DP: anti-depressant” value is given as “++ (5% ≤ ++ <25%)”, the “MS: mood stabilizer” value is recorded as “+ (LOQ ≤ + <5%)”, the “PS: anti-psychotic” value was “++ (5% ≤ ++ <25%)” and the “SD: sedative hypnotic” value was “+ (LOQ ≤ + <5%)”. Besides, the “UN: uncharacterized CNS activity” value was “++++ (50% ≤ ++++)”. In addition, the minimal effective dose under setting [2] is 3 to 10 mg/kg.

Take `CN[C@@H]1COCc2ccc(C)c(C)c21` [Example 143]: the “AD: ADHD” value was “+ (LOQ ≤ + <5%)”, the “AG: analgesic” value is recorded as “+++ (25% ≤ +++ <50%)”, the “AX: anxiolytic” value is “++ (5% ≤ ++ <25%)” and the “CE: cognitive enhancer” value is “++ (5% ≤ ++ <25%)”. The “DP: anti-depressant” value is reported as “++ (5% ≤ ++ <25%)”, the “MS: mood stabilizer” value was “+ (LOQ ≤ + <5%)”, the “PS: anti-psychotic” value is “+ (LOQ ≤ + <5%)” and the “SD: sedative hypnotic” value is given as “++ (5% ≤ ++ <25%)”. For the same compound, the “UN: uncharacterized CNS activity” value is given as “++ (5% ≤ ++ <25%)”. Further, the minimal effective dose under setting [1] lay within 3 to 10 mg/kg.

For the compound `C[C@H]1OCc2ccc(C(F)(F)F)cc2[C@@H]1N.Cl` [Example 229], the “AD: ADHD” value is given as “+ (LOQ ≤ + <5%)”, the “AG: analgesic” value is given as “+ (LOQ ≤ + <5%)”, the “AX: anxiolytic” value is on record as “++ (5% ≤ ++ <25%)” and the “CE: cognitive enhancer” value is listed as “++ (5% ≤ ++ <25%)”. The “DP: anti-depressant” value is reported as “++ (5% ≤ ++ <25%)”, the “MS: mood stabilizer” value is “+ (LOQ ≤ + <5%)”, the “PS: anti-psychotic” value was “++ (5% ≤ ++ <25%)” and the “SD: sedative hypnotic” value is on record as “+ (LOQ ≤ + <5%)”. Further, the “UN: uncharacterized CNS activity” value is recorded as “+++ (25% ≤ +++ <50%)”. In addition, under setting [2], the minimal effective dose lay within 3 to 10 mg/kg.

For the compound `Cc1ccc2c(c1C)C(N)CCOC2.Cl` (stereo not drawn) [Example 43, 6,7-Dimethyl-1,3,4,5-tetrahydrobenzo [c]oxepin-5-amine hydrochloride], the “AD: ADHD” value is recorded as “+ (LOQ ≤ + <5%)”, the “AG: analgesic” value is listed as “++ (5% ≤ ++ <25%)”, the “AX: anxiolytic” value is “+++ (25% ≤ +++ <50%)” and the “CE: cognitive enhancer” value is given as “++ (5% ≤ ++ <25%)”. Also, the “DP: anti-depressant” value was “+ (LOQ ≤ + <5%)”, the “MS: mood stabilizer” value is on record as “+ (LOQ ≤ + <5%)”, the “PS: anti-psychotic” value is “++ (5% ≤ ++ <25%)” and the “SD: sedative hypnotic” value is “++ (5% ≤ ++ <25%)”. For the same compound, the “UN: uncharacterized CNS activity” value is given as “+ (LOQ ≤ + <5%)”. The minimal effective dose under setting [1] is 10 to 30 mg/kg.

As for `C[C@H]1OCc2cccc(F)c2[C@@H]1N.Cl` [Example 216], the “AD: ADHD” value is “+ (LOQ ≤ + <5%)”, the “AG: analgesic” value is given as “++ (5% ≤ ++ <25%)”, the “AX: anxiolytic” value was “++ (5% ≤ ++ <25%)” and the “CE: cognitive enhancer” value was “+ (LOQ ≤ + <5%)”. The “DP: anti-depressant” value is on record as “++ (5% ≤ ++ <25%)”, the “MS: mood stabilizer” value was “+ (LOQ ≤ + <5%)”, the “PS: anti-psychotic” value is recorded as “+ (LOQ ≤ + <5%)” and the “SD: sedative hypnotic” value is listed as “+ (LOQ ≤ + <5%)”. Further, the “UN: uncharacterized CNS activity” value is on record as “++++ (50% ≤ ++++)”. Besides, the minimal effective dose under setting [2] was 3 to 10 mg/kg.

For `Cc1ccc(Cl)c2c1[C@H](N)COC2` (single isomer, unassigned) [Example 175], the “AD: ADHD” value is “+ (LOQ ≤ + <5%)”, the “AG: analgesic” value is given as “++ (5% ≤ ++ <25%)”, the “AX: anxiolytic” value is “++ (5% ≤ ++ <25%)” and the “CE: cognitive enhancer” value is reported as “++ (5% ≤ ++ <25%)”. For the same compound, the “DP: anti-depressant” value was “++ (5% ≤ ++ <25%)”, the “MS: mood stabilizer” value is on record as “+ (LOQ ≤ + <5%)”, the “PS: anti-psychotic” value was “++ (5% ≤ ++ <25%)” and the “SD: sedative hypnotic” value is reported as “+ (LOQ ≤ + <5%)”. For the same compound, the “UN: uncharacterized CNS activity” value is “++++ (50% ≤ ++++)”. Moreover, under setting [2], the minimal effective dose was under 3 mg/kg.

As to `CCc1cccc2c1C(N)COC2.Cl` (stereo not drawn) [Example 53, 5-Ethylisochroman-4-amine hydrochloride], the “AD: ADHD” value was “+ (LOQ ≤ + <5%)”, the “AG: analgesic” value was “++ (5% ≤ ++ <25%)”, the “AX: anxiolytic” value is “++ (5% ≤ ++ <25%)” and the “CE: cognitive enhancer” value was “++ (5% ≤ ++ <25%)”. The “DP: anti-depressant” value is on record as “++ (5% ≤ ++ <25%)”, the “MS: mood stabilizer” value is recorded as “+ (LOQ ≤ + <5%)”, the “PS: anti-psychotic” value is “++ (5% ≤ ++ <25%)” and the “SD: sedative hypnotic” value was “++ (5% ≤ ++ <25%)”. The “UN: uncharacterized CNS activity” value was “++++ (50% ≤ ++++)”. Besides, the minimal effective dose under setting [1] is 3 to 10 mg/kg.

As for `C#CCN[C@@H]1COCc2ccccc21.Cl` [Example 263], the “AD: ADHD” value is “+ (LOQ ≤ + <5%)”, the “AG: analgesic” value is reported as “+ (LOQ ≤ + <5%)”, the “AX: anxiolytic” value is recorded as “+ (LOQ ≤ + <5%)” and the “CE: cognitive enhancer” value is “+ (LOQ ≤ + <5%)”. Moreover, the “DP: anti-depressant” value is recorded as “+ (LOQ ≤ + <5%)”, the “MS: mood stabilizer” value is “+ (LOQ ≤ + <5%)”, the “PS: anti-psychotic” value is recorded as “+ (LOQ ≤ + <5%)” and the “SD: sedative hypnotic” value is “++ (5% ≤ ++ <25%)”. Besides, the “UN: uncharacterized CNS activity” value is reported as “+ (LOQ ≤ + <5%)”. Moreover, the minimal effective dose under setting [2] was under 3 mg/kg.

Take `Cc1cc(C)c2c(c1)[C@H](N)COC2` (single isomer, unassigned) [Example 125]: the “AD: ADHD” value is on record as “+ (LOQ ≤ + <5%)”, the “AG: analgesic” value is recorded as “+ (LOQ ≤ + <5%)”, the “AX: anxiolytic” value was “++ (5% ≤ ++ <25%)” and the “CE: cognitive enhancer” value is recorded as “++ (5% ≤ ++ <25%)”. Moreover, the “DP: anti-depressant” value is “++ (5% ≤ ++ <25%)”, the “MS: mood stabilizer” value was “+ (LOQ ≤ + <5%)”, the “PS: anti-psychotic” value is reported as “++ (5% ≤ ++ <25%)” and the “SD: sedative hypnotic” value is reported as “++ (5% ≤ ++ <25%)”. For the same compound, the “UN: uncharacterized CNS activity” value is “++++ (50% ≤ ++++)”. Also, the minimal effective dose under setting [1] was under 3 mg/kg.

Consider `C[C@H]1OCc2cc(Cl)ccc2[C@@H]1N.Cl` [Example 94], for which the “AD: ADHD” value is recorded as “+ (LOQ ≤ + <5%)”, the “AG: analgesic” value is “++ (5% ≤ ++ <25%)”, the “AX: anxiolytic” value is “++ (5% ≤ ++ <25%)” and the “CE: cognitive enhancer” value is given as “+ (LOQ ≤ + <5%)”. Further, the “DP: anti-depressant” value is listed as “+ (LOQ ≤ + <5%)”, the “MS: mood stabilizer” value was “+ (LOQ ≤ + <5%)”, the “PS: anti-psychotic” value is “+ (LOQ ≤ + <5%)” and the “SD: sedative hypnotic” value was “+ (LOQ ≤ + <5%)”. Further, the “UN: uncharacterized CNS activity” value is reported as “++ (5% ≤ ++ <25%)”. Besides, the minimal effective dose under setting [1] fell in the range of 10 to 30 mg/kg.

The values above are taken from patent publication US11077090B2, “Compounds and compositions and uses thereof” (Sunovion Pharmaceuticals Inc., priority 2016, dated 2021).
